Measurements taken from the CheMixHub viscosity set.

Experiment: xn = mol fraction of the nth substance listed

CCN(CC)CCO + CC(=O)N(C)C
viscosity [mPa·s], 101 kPa
Conditions | 298.15 K | 308.15 K | 318.15 K
x2 = 0.0505 | 2.874 | 2.164 | 1.669
x2 = 0.0999 | 2.683 | 1.999 | 1.517
x2 = 0.1499 | 2.512 | 1.849 | 1.374
x2 = 0.2004 | 2.356 | 1.715 | 1.254
x2 = 0.2997 | 2.089 | 1.502 | 1.08
x2 = 0.3997 | 1.871 | 1.314 | 0.956
x2 = 0.5008 | 1.677 | 1.207 | 0.861
x2 = 0.5998 | 1.51 | 1.103 | 0.792
x2 = 0.6995 | 1.357 | 1.015 | 0.747
x2 = 0.7989 | 1.2 | 0.932 | 0.721
x2 = 0.8997 | 1.046 | 0.854 | 0.7

NS(=O)(=O)O + CC(=O)N(C)C
298 K, 101.33 kPa
Conditions | viscosity [mPa·s]
x1 = 0.02772 | 1.19
x1 = 0.05584 | 1.637
x1 = 0.08283 | 2.268
x1 = 0.1075 | 3.241
x1 = 0.33 | 1.147
x1 = 0.67 | 1.499

CCN(CC)CCO + CC(=O)c1ccccc1
viscosity [mPa·s], 101.3 kPa
Conditions | x2 = 0.1124 | x2 = 0.2218 | x2 = 0.3282 | x2 = 0.4318 | x2 = 0.5327 | x2 = 0.631 | x2 = 0.7268 | x2 = 0.8201 | x2 = 0.9112
303.15 K | 3.131 | 2.954 | 2.778 | 2.601 | 2.424 | 2.247 | 2.07 | 1.894 | 1.717
313.15 K | 2.304 | 2.193 | 2.083 | 1.972 | 1.862 | 1.752 | 1.641 | 1.531 | 1.42
323.15 K | 1.458 | 1.446 | 1.434 | 1.419 | 1.401 | 1.381 | 1.36 | 1.335 | 1.311

CCCCC + CC(C)(C)O
viscosity [mPa·s], 101 kPa
Conditions | x1 = 0.1023 | x1 = 0.2048 | x1 = 0.3056 | x1 = 0.407 | x1 = 0.5068 | x1 = 0.606 | x1 = 0.7043 | x1 = 0.8042 | x1 = 0.902
293.15 K | 1.891 | 1.128 | 0.88 | 0.771 | 0.657 | 0.485 | 0.373 | 0.32 | 0.281
303.15 K | 1.992 | 1.162 | 1.011 | 1.064 | 0.954 | 0.769 | 0.616 | 0.49 | 0.36
313.15 K | 1.996 | 1.211 | 1.298 | 1.282 | 1.182 | 1.012 | 0.832 | 0.625 | 0.455

CCN(CC)S(C)(=O)=O + CC(C)(C)O
303.15 K, 101.33 kPa
Conditions | viscosity [mPa·s]
x1 = 0.0764 | 28570
x1 = 0.1463 | 26300
x1 = 0.2364 | 24820
x1 = 0.3171 | 24370
x1 = 0.3944 | 24530
x1 = 0.4712 | 25010
x1 = 0.5369 | 25790
x1 = 0.6062 | 26640
x1 = 0.6888 | 27960
x1 = 0.7621 | 30100
x1 = 0.8534 | 33040
x1 = 0.9381 | 36570

CS(C)=O + CC(C)=O
302.4 K, 101 kPa
Conditions | viscosity [mPa·s]
x1 = 0.0644 | 0.7031
x1 = 0.1924 | 0.809
x1 = 0.3826 | 1.14
x1 = 0.508 | 1.554
x1 = 0.6325 | 2.09
x1 = 0.8173 | 2.443

CCCCC + CC(C)O
298.15 K, 101 kPa
Conditions | viscosity [mPa·s]
x2 = 0.1128 | 0.262
x2 = 0.2204 | 0.281
x2 = 0.3273 | 0.323
x2 = 0.4232 | 0.385
x2 = 0.516 | 0.466
x2 = 0.6004 | 0.577
x2 = 0.6858 | 0.71
x2 = 0.7699 | 0.966
x2 = 0.8524 | 1.272
x2 = 0.9438 | 1.702

CCCCCCCCCC + CC(C)O
viscosity [mPa·s]
Conditions | 293.15 K | 298.15 K | 303.15 K | 308.15 K
101 kPa, x2 = 0.0571 | – | 0.839 | – | 0.757
101 kPa, x2 = 0.1237 | – | 0.837 | – | 0.74
101 kPa, x2 = 0.1714 | – | 0.838 | – | 0.726
101 kPa, x2 = 0.2709 | – | 0.851 | – | 0.735
101 kPa, x2 = 0.3525 | – | 0.867 | – | 0.746
101 kPa, x2 = 0.4184 | – | 0.888 | – | 0.762
101 kPa, x2 = 0.5253 | – | 0.945 | – | 0.8
101 kPa, x2 = 0.5786 | – | 0.986 | – | 0.824
101 kPa, x2 = 0.6537 | – | 1.059 | – | 0.882
101 kPa, x2 = 0.6971 | – | 1.113 | – | 0.909
101 kPa, x2 = 0.7895 | – | 1.261 | – | 1.013
101 kPa, x2 = 0.8717 | – | 1.457 | – | 1.152
101 kPa, x2 = 0.9099 | – | 1.583 | – | 1.246
101 kPa, x2 = 0.9453 | – | 1.727 | – | 1.35
101.32 kPa, x2 = 0.0412 | 0.896 | 0.831 | 0.773 | –
101.32 kPa, x2 = 0.0998 | 0.893 | 0.827 | 0.768 | –
101.32 kPa, x2 = 0.161 | 0.904 | 0.847 | 0.785 | –
101.32 kPa, x2 = 0.2938 | 0.916 | 0.845 | 0.777 | –
101.32 kPa, x2 = 0.3954 | 0.957 | 0.878 | 0.809 | –
101.32 kPa, x2 = 0.4988 | 1.006 | 0.916 | 0.836 | –
101.32 kPa, x2 = 0.5943 | 1.095 | 0.986 | 0.893 | –
101.32 kPa, x2 = 0.7019 | 1.241 | 1.11 | 0.994 | –
101.32 kPa, x2 = 0.8012 | 1.436 | 1.273 | 1.127 | –
101.32 kPa, x2 = 0.9017 | 1.759 | 1.538 | 1.348 | –
101.32 kPa, x2 = 0.951 | 2.014 | 1.742 | 1.515 | –

CS(C)=O + CC(C)O
viscosity [mPa·s]
Conditions | 298.15 K | 303.15 K | 308.15 K | 318.15 K
101 kPa, x1 = 0.0385 | 1.91 | 1.59 | 1.46 | –
101 kPa, x1 = 0.0787 | 1.77 | 1.49 | 1.36 | –
101 kPa, x1 = 0.1001 | – | 1.525 | – | –
101 kPa, x1 = 0.2059 | 1.51 | – | – | –
101 kPa, x1 = 0.2479 | 1.45 | 1.32 | 1.2 | –
101 kPa, x1 = 0.339 | 1.42 | 1.29 | – | –
101 kPa, x1 = 0.4639 | 1.45 | 1.32 | – | –
101 kPa, x1 = 0.5357 | 1.48 | 1.35 | 1.24 | –
101 kPa, x1 = 0.6422 | 1.55 | 1.42 | 1.32 | –
101 kPa, x1 = 0.7547 | 1.66 | 1.51 | 1.39 | –
101 kPa, x1 = 0.8134 | 1.72 | 1.57 | 1.45 | –
101 kPa, x1 = 0.8738 | 1.8 | 1.64 | 1.5 | –
101 kPa, x1 = 0.9005 | – | – | – | 1.285
101 kPa, x1 = 0.936 | 1.88 | 1.72 | – | –
101.3 kPa, x1 = 0.0788 | 1.742 | 1.576 | – | –
101.3 kPa, x1 = 0.1608 | 1.589 | 1.447 | – | –
101.3 kPa, x1 = 0.2475 | 1.473 | 1.358 | – | –
101.3 kPa, x1 = 0.3389 | 1.475 | 1.319 | – | –
101.3 kPa, x1 = 0.4347 | 1.451 | – | – | –
101.3 kPa, x1 = 0.5347 | 1.501 | 1.346 | – | –
101.3 kPa, x1 = 0.6423 | 1.597 | 1.406 | – | –
101.3 kPa, x1 = 0.7546 | 1.679 | 1.505 | – | –
101.3 kPa, x1 = 0.8737 | 1.828 | 1.622 | – | –
